The conditions of series [1]: in vivo; cited from earlier work.
The conditions of series [2]: human, in vivo.

Take “semi-synthetic human insulin: semi-synthetic human insulin delivered by nebulizer to six diabetic children (Elliot et al)”: the “efficiency of absorption as compared to subcutaneous delivery” value in series [1] is on record as 20-25%.
Turning to Low molecular weight heparin, in series [2], the “bioavailabilities, comparison of flow rates” value was “higher bioavailabilities” and the “times to peak concentration, comparison of flow rates” value is given as “lower times to peak concentration”.
As to “Human calcitonin: Powders containing 26.7% human calcitonin (Ciba-Geigy), spray dried with mannitol and citrate buffer”, in series [2], the “bioavailabilities, comparison of flow rates” value is reported as “higher bioavailabilities” and the “times to peak concentration, comparison of flow rates” value is listed as “lower times to peak concentration”.
On to Albuterol sulfate, for which the “therapeutic effect, comparison of flow rates” value (dry powder inhaled, flow rates below 17 liters per minute vs above 17 liters per minute) was “increased therapeutic effect”. The “lung deposition, comparison of flow rates” value (human, in vivo) is “higher lung deposition”.

(Values after patent US6655379B2, “Aerosolized active agent delivery” (Nektar Therapeutics, priority 1998, dated 2003).)
